The record followed here is patent US10188634B2, “3-(3H-imidazo[4,5-C]pyridin-2-yl)-1 H-pyrazolo[4,3-B]pyridines and therapeutic uses thereof” (Samumed, LLC, priority 2015, dated 2019).

Structures are written as SMILES.

Common to all, as to assay type: cell-based
In test [1] the test system is Wnt activity (Sp5-Luc reporter, human Sp5 promoter with eight TCF/LEF binding sites) in SW480 colon carcinoma cells. Put plainly: Screening assay for Wnt activity: Sp5-Luc reporter gene assay in SW480 cells. The note with it: for inhibition at 10 µM: read-out: percent inhibition at 10 μM (given for EC50 of >10 μM); for EC50: 10-point dose-response starting from 10 μM, overnight incubation. The source says: The screening assay for Wnt activity is described as follows. Reporter cell lines can be generated by stably transducing cancer cell lines (e.g., colon cancer) or primary cells (e.g., IEC-6 intestinal cells) with a lentiviral construct that includes a Wnt-responsive promoter driving expression of the firefly luciferase gene.
SW480 colon carcinoma cells were transduced with a lentiviral vector expressing luciferase with a human Sp5 promoter consisting of a sequence of eight TCF/LEF binding sites. SW480 cells stably expressing the Sp5-Luc reporter gene and a hygromycin resistance gene were selected by treatment with 150 μg/mL of hygromycin for 7 days. These stably transduced SW480 cells were expanded in cell culture and used for all further screening activities. Each compound was dissolved in DMSO as a 10 mM stock and used to prepare compound source plates. Serial dilution (1:3, 10-point dose-response curves starting from 10 μM) and compound transfer was performed using the ECHO 550 (Labcyte, Sunnyvale, Calif.) into 384-well white solid bottom assay plates (Greiner Bio-One) with appropriate DMSO backfill for a final DMSO concentration of 0.1%. For Sp5-Luc reporter gene assays, the cells were plated at 4,000 cells/well in 384-well plates with medium containing 1% fetal bovine serum and incubated overnight at 37° C. and 5% CO2. Following incubation, 20 μl of BrightGlo luminescence reagent (Promega) was added to each well of the 384-well assay plates. The plates were placed on an orbital shaker for 2 min and then luminescence was quantified using the Envision (Perkin Elmer) plate reader. Readings were normalized to DMSO only treated cells, and normalized activities were utilized for EC50 calculations using the dose-response log (inhibitor) vs. response -variable slope (four parameters) nonlinear regression feature available in GraphPad Prism 5.0 (or Dotmatics). For EC50 of >10 μM, the percent inhibition at 10 μM is provided.
(In a reporter assay the amount or activity of a reporter protein is the signal.)

In another test the test system is SW480 colon cancer cells. Put plainly: Cell viability assay (CellTiter-Blue) in SW480 colon cancer cells. The note with it: Homo sapiens, 96 h; for inhibition at 10 µM: four days, CellTiter-Blue, read-out: percent inhibition at 10 μM (given for EC50 of >10 μM); for EC50: four days incubation, CellTiter-Blue cell viability. The method, then: Representative compounds were screened using the following assay procedure to assess the effect on cell viability as described below.
Each compound was dissolved in DMSO as a 10 mM stock and used to prepare compound source plates. Serial dilution (1:3, 8-point dose-response curves from 10 μM to 0.004 μM) and compound transfer was performed using the ECHO 550 (Labcyte, Sunnyvale, Calif.) into 96-well clear bottom, black-walled plates (Corning-Costar).
Approximately 2×10^3 SW480 colon cancer cells were seeded into each well and allowed to incubate in the presence or absence of compound for four days at 37° C./5% CO2. Eight replicates of DMSO-treated cells served as controls and cells treated with compound were performed in duplicate.
After incubation, 20 μL of CellTiter-Blue (Promega) was added to each well allowed to incubate for approximately 3 hours. This reagent was a buffered solution which contains resazurin, metabolically active cells were able to reduce rezarurin (blue) into resorufin (pink) which was highly fluorescent. This measured fluorescence was used as a readout for cell viability.
After incubation, the plates were read at Ex 560 nm Em 590 nm (Cytation 3, BioTek). Dose-response curves were generated and EC50 concentration values were calculated using non-linear regression curve fit in the GraphPad Prism (San Diego, Calif.) or Dotmatics' Studies Software (Bishops Stortford, UK). For EC50 of >10 μM, the percent inhibition at 10 μM is provided.
Background: Alamar Blue is a resazurin reagent that responds to reducing activity.

Another test deals with IL-6 in THP-1 cells. Put plainly: Inhibition of IL-6 in LPS-stimulated THP-1 human monocyte cells (HTRF). The note with it: IL-6 HTRF; for EC50: 500 ng/mL LPS, 22 hours; for inhibition at 10 µM: LPS, read-out: percent inhibition in brackets (given for EC50 >10 μM). The method, then: Human Monocyte Cell Culture: Human monocyte cell line (THP-1 cells; Catalog # TIB-202, ATCC, Manassas, Va.) were cultured in Roswell Park Memorial Institute (RPMI) 1640 Medium (Catalog #21870-100, Buffalo, N.Y.) with 1% L-glutamine, 1% HEPES, 1% Sodium Pyruvate, 2% Sodium Bicarbonate supplemented with 100 units/mL penicillin, 50 μg/mL streptomycin, 2-mercaptoethanol (0.05 mM) [basal medium] and 10% fetal bovine serum (Catalog #16140089, Life Technologies, Carlsbad, Calif.) at 37° C. and 5% CO2.
Compound Screening: THP-1 cells were cultured in basal media with 1% FBS for 24 hours before the start of the assay. Each compound was dissolved in DMSO as a 10 mM stock and used to prepare compound source plates. Serial dilution (1:3, 10-point dose-response curves starting from 10 μM) and compound transfer was performed using the ECHO 550 (Labcyte, Sunnyvale, Calif.) into 384-well white low volume assay plates (Greiner Bio-One) with appropriate DMSO backfill for a final DMSO concentration of 0.1%. THP-1 cells were plated at 5000 cells/well in the 384-well plates and incubated at 37° C. for 2 h. 500 ng/mL of LPS was added after 2 hours and cells were incubated for another 22 hours at 37° C. Plates were spun in a centrifuge for 1 minute at […] and a mixture of anti-IL6 XL665, and anti-IL6 Cryptate diluted in reconstitution buffer (Cisbio Inc.) was added to each well. Following incubation for 3 hrs at room temperature, Homogeneous Time-Resolved Fluorescence (HTRF) was measured using the Envision (Perkin Elmer) at 665 nm and […]. The ratio of fluorescence at 665 nm to 620 nm was used as a readout for IL6 quantification. All samples were processed in duplicate. Readings were normalized to DMSO treated cells and normalized activities were utilized for EC50 calculations using the dose-response log (inhibitor) vs. response -variable slope (four parameters) nonlinear regression feature available in GraphPad Prism 5.0 (or Dotmatics). For EC50 of >10 μM, the percent inhibition at 10 μM is provided.

A word on the inhibition: it is the share of the control response that was lost under treatment. Broadly, the EC50 is the concentration at which the effect is half-maximal. A higher EC50 goes with lower potency in that assay. For `CCC(=O)Nc1cncc(-c2ccc3[nH]nc(-c4nc5c(-c6cccc(F)c6)cncc5[nH]4)c3n2)c1` [Compound 1, N-(5-(3-(7-(3-Fluorophenyl)-3H-imidazo[4,5-c]pyridin-2-yl)-1H-pyrazolo[4,3-b]pyridin-5-yl)pyridin-3-yl)propionamide], the inhibition at 10 µM turned out to be 12.3% in test [1], 0% in the test on SW480 colon cancer cells and 25.8% with IL-6 in THP-1 cells. Besides, the EC50 (in test [1]; in the test with SW480 colon cancer cells; in the test with IL-6 in THP-1 cells) was over 10 µM throughout.
Turning to `CC(C)CC(=O)Nc1cncc(-c2ccc3[nH]nc(-c4nc5c(-c6cccc(F)c6)cncc5[nH]4)c3n2)c1` [Compound 2, N-(5-(3-(7-(3-Fluorophenyl)-3H-imidazo[4,5-c]pyridin-2-yl)-1H-pyrazolo[4,3-b]pyridin-5-yl)pyridin-3-yl)-3-methylbutanamide], the inhibition at 10 µM is 43% in test [1], 0% with SW480 colon cancer cells and 25.4% in the test with IL-6 in THP-1 cells. The EC50 (in test [1]; in the test with SW480 colon cancer cells; in the test on IL-6 in THP-1 cells) was over 10 µM each time.
On to `Fc1cccc(-c2cncc3[nH]c(-c4n[nH]c5ccc(-c6ccncc6)nc45)nc23)c1` [Compound 18, 3-(7-(3-Fluorophenyl)-3H-imidazo[4,5-c]pyridin-2-yl)-5-(pyridin-4-yl)-1H-pyrazolo[4,3-b]pyridine], for which the figures for the inhibition at 10 µM (in test [1]; in the test with SW480 colon cancer cells; in the test with IL-6 in THP-1 cells) were 14%, 6.5% and 8.6%, respectively. The EC50 (in test [1]; in the test on SW480 colon cancer cells; in the test on IL-6 in THP-1 cells) was over 10 µM throughout.
With `O=C(Nc1cncc(-c2ccc3[nH]nc(-c4nc5c(-c6ccc(F)cc6)cncc5[nH]4)c3n2)c1)C1CCC1` [Compound 49, N-(5-(3-(7-(4-Fluorophenyl)-3H-imidazo[4,5-c]pyridin-2-yl)-1H-pyrazolo[4,3-b]pyridin-5-yl)pyridin-3-yl)cyclobutanecarboxamide], the inhibition at 10 µM in test [1] turned out to be 44%; in the test with IL-6 in THP-1 cells it was 37.7%. The EC50 in test [1] was over 10 µM; in the test on SW480 colon cancer cells, 8.68 µM; in the test with IL-6 in THP-1 cells it was over 10 µM.
Consider `Fc1ccc(-c2cncc3[nH]c(-c4n[nH]c5ccc(-c6cncnc6)nc45)nc23)cc1` [Compound 55, 3-(7-(4-Fluorophenyl)-3H-imidazo[4,5-c]pyridin-2-yl)-5-(pyrimidin-5-yl)-1H-pyrazolo[4,3-b]pyridine], for which the inhibition at 10 µM amounted to 18% in test [1], 0% in the test with SW480 colon cancer cells and 13.4% in the test with IL-6 in THP-1 cells. The EC50 (in test [1]; in the test on SW480 colon cancer cells; with IL-6 in THP-1 cells) was over 10 µM in each case.
For `Nc1cncc(-c2ccc3[nH]nc(-c4nc5c(-c6ccccc6F)cncc5[nH]4)c3n2)c1` [Compound 59, 5-(3-(7-(2-Fluorophenyl)-3H-imidazo[4,5-c]pyridin-2-yl)-1H-pyrazolo[4,3-b]pyridin-5-yl)pyridin-3-amine], the inhibition at 10 µM in test [1] was determined as 7%; with SW480 colon cancer cells, 0%. Further, the EC50 in test [1] is over 10 µM; in the test with SW480 colon cancer cells, over 10 µM; in the test with IL-6 in THP-1 cells it was 0.094 µM.
Turning to `CC(C)C(=O)Nc1cncc(-c2ccc3[nH]nc(-c4nc5c(-c6ccccc6F)cncc5[nH]4)c3n2)c1` [Compound 65, N-(5-(3-(7-(2-fluorophenyl)-3H-imidazo[4,5-c]pyridin-2-yl)-1H-pyrazolo[4,3-b]pyridin-5-yl)pyridin-3-yl)isobutyramide], the inhibition at 10 µM stood at 1% in test [1], 0% with SW480 colon cancer cells and 28.2% in the test on IL-6 in THP-1 cells. The EC50 (in test [1]; in the test on SW480 colon cancer cells; in the test with IL-6 in THP-1 cells) was over 10 µM in each case.
For the compound `CC(C)(C)CC(=O)Nc1cncc(-c2ccc3[nH]nc(-c4nc5c(-c6ccccc6F)cncc5[nH]4)c3n2)c1` [Compound 72, N-(5-(3-(7-(2-fluorophenyl)-3H-imidazo[4,5-c]pyridin-2-yl)-1H-pyrazolo[4,3-b]pyridin-5-yl)pyridin-3-yl)-3,3-dimethylbutanamide], the inhibition at 10 µM in test [1] turned out to be 5.7%; in the test with SW480 colon cancer cells it was 9.8%; in the test with IL-6 in THP-1 cells it was 29.8%. Also, the EC50 (in test [1]; in the test with SW480 colon cancer cells; in the test on IL-6 in THP-1 cells) was over 10 µM throughout.
In the case of `O=C(Nc1cncc(-c2ccc3[nH]nc(-c4nc5c(-c6ccccc6F)cncc5[nH]4)c3n2)c1)C1CCCC1` [Compound 78, N-(5-(3-(7-(2-Fluorophenyl)-3H-imidazo[4,5-c]pyridin-2-yl)-1H-pyrazolo[4,3-b]pyridin-5-yl)pyridin-3-yl)cyclopentanecarboxamide], the inhibition at 10 µM came out at 6.6% in test [1] and 40.4% in the test on IL-6 in THP-1 cells. Further, the figures for the EC50 (in test [1]; with SW480 colon cancer cells; in the test with IL-6 in THP-1 cells) were over 10 µM, 8.9 µM and over 10 µM, respectively.
In the case of `c1cncc(-c2ccc3[nH]nc(-c4nc5c(-c6cccnc6)cncc5[nH]4)c3n2)c1` [Compound 88, 5-(Pyridin-3-yl)-3-(7-(pyridin-3-yl)-3H-imidazo[4,5-c]pyridin-2-yl)-1H-pyrazolo[4,3-b]pyridine], the inhibition at 10 µM in test [1] was 28%; with SW480 colon cancer cells it was 7.1%; with IL-6 in THP-1 cells, 13.9%. Besides, the EC50 (in test [1]; in the test with SW480 colon cancer cells; in the test with IL-6 in THP-1 cells) was over 10 µM in each case.
Turning to `CC(C)C(=O)Nc1cncc(-c2ccc3[nH]nc(-c4nc5c(-c6cccnc6)cncc5[nH]4)c3n2)c1` [Compound 93, N-(5-(3-(7-(Pyridin-3-yl)-3H-imidazo[4,5-c]pyridin-2-yl)-1H-pyrazolo[4,3-b]pyridin-5-yl)pyridin-3-yl)isobutyramide], the inhibition at 10 µM in test [1] was found to be 18.3%; in the test with SW480 colon cancer cells, 6.3%; with IL-6 in THP-1 cells it was 18%. For the same compound, the EC50 (in test [1]; with SW480 colon cancer cells; in the test with IL-6 in THP-1 cells) was over 10 µM in each case.
